The nature of data set [1]: Reconstitution of lyophilized P-407 formulated cakes in 100 μL DPBS (visual appearance). The format is physicochemical. The note with it: 100 nmols ligand, 100 μL DPBS (JF-552: after 4 h). As for the experimental part: The 1 μmol JF Dye HaloTag Ligand (JF-669 or JF-552) was dissolved in ca. 3.5 mL EtOH, followed by transferring the resulting solution to the melted P-407. The resulting mixture was rotated at ca. 65° C. to afford a homogeneous solution. […]

Data set [2] can be described thus: Solubility analysis: clarity by optical density at 850 nm (OD850) after reconstitution. The class given is physicochemical. The note with it: lyophilized, reconstituted in DPBS pH 7.0, 1 mM. On the procedure: FIG. 4. Solubility of dye-chloroalkyl ligand conjugates following lyophilization in the presence of various excipients and reconstitution in DPBS pH 7.0.
Vials of lyophilized Chloroalkyl-JANELIA FLUOR 552 (CA-JF 552) and Chloroalkyl-JANELIA FLUOR 669 (CA-JF 669) formulated prior to lyophilization with various excipients were separately dissolved in 100 μL aqueous buffer to a final 1 mM concentration. 70 μl of the CA-JF 552 and CA-JF 669 solutions were then transferred to wells of a transparent 96-well plate for clarity analysis using Optical Density absorbance measurements at 850 nm [Bandwidth 3.5 nm] (OD850) on Tecan Spark plate reader (FIGS. 4 and 5). Target absorbance limit for clarity measurements was determined using a known turbidity sample of material similarly formulated with poloxamer to assess solubility of the ligand.
A clarity target of <0.1 was utilized.

In the case of `C[Si]1(C)C2=CC(=[N+]3CCC3)C=CC2=C(c2c(F)c(C(=O)NCCOCCOCCCCCCCl)c(F)c(F)c2C(=O)[O-])c2ccc(N3CCC3)cc21` [JF-669, Chloroalkyl-JANELIA FLUOR 669], the appearance after reconstitution result was “hazy suspension” in data set [1] (3-mg-P407 formulation) and “clear solution” in data set [1] (9-mg-P407 formulation). Moreover, the “clarity (OD850) versus clarity target <0.1” value in data set [2] (excipient cyclodextrin) and in data set [2] (excipient pullulan) was “unable to hit clarity target” throughout.

Regarding Chloroalkyl-JANELIA FLUOR 552 [JF-552], the appearance after reconstitution entry was “hazy suspension” in data set [1] (3-mg-P407 formulation) and “clear solution” in data set [1] (9-mg-P407 formulation). For the same compound, the “clarity (OD850) versus clarity target <0.1” value in data set [2] (excipient cyclodextrin) and in data set [2] (excipient pullulan) was “unable to hit clarity target” throughout.
